The text below walks through data of US12441733B2, “Substituted 2,4-dioxotetrahydropyrimidines as intermediates in the synthesis of bruton's tyrosine kinase inhibitors” (Novartis AG, priority 2018, dated 2025).

The target in the assay is T1, IKZF3-GFP (Homo sapiens, UniProt Q96SW2+Q9UKT9).
T1 construct: expressed in transfected cells; host or cells: HEK293A (Invitrogen R70507), lentiviral transduction with pLenti6-IKZF3-GFP-Ires-RFP, blasticidin selection
As to the kind of experiment: IKZF3-GFP protein abundance flow cytometry assay in HEK293A cells. The format is cell-based. The note with it: HEK293A IKZF3-GFP-iresRFP cells, 24 h; for DC50: GFP signal by flow cytometry; for IKZF3 deg Amax: % protein remaining at maximum degradation. As for the experimental part:
BTK-GFP and IKZF3-GFP protein abundance flow cytometry assay in HEK293A cells:
Degradation of BTK or IKZF3 was measured in HEK293A cells (Invitrogen R70507) expressing either BTK-GFP and RFP or IKZF3-GFP and RFP from a stably integrated bicistronic BTK-GFP-iresRFP or IKZF3-GFP-iresRFP construct, respectively. Reduction of the GFP signal measured by flow cytometry served as readout for BTK or IKZF3 degradation after degrader treatment.
By analogy the bicistronic pLenti6-IKZF3-GFP-iresRFP was engineered by gateway cloning of IKZF3 from a pENTR221-IKZF3(STOP-Leu) construct into the previously described pLenti6-DEST-GFP-Ires-RFP vector using the LR Clonase kit (Invitrogen 11791-019) according to the manufacturer's manual. All vectors described have been sequenced for verification.
ii) Engineering of Stably Expressing 293A BTK-GFP-Ires-RFP and IKZF3-GFP-Ires-RFP Sensor Cells
293A BTK-GFP-Ires-RFP and IKZF3-GFP-ires-RFP sensor cells were generated by lentiviral vector transduction using the pLenti6-BTK-GFP-Ires-RFP or pLenti6-IKZF3-GFP-Ires-RFP sensor construct described before. Lentiviral particles were produced in HEK293FT cells (Invitrogen R70007) by co-transfection of 500 ng pLenti6-BTK-GFP-ires-RFP or pLenti6-IKZF3-GFP-Ires-RFP, 500 ng delta8.71 and 200 ng pVSVG diluted in 100 μl OptiMEM serum free medium (Invitrogen #11058-021) that was mixed after 5 min preincubation with 3 μl of Lipofectamine2000 (Invitrogen #11668-019) in 97 μl OptiMEM serum free medium. The mix was incubated for another 20 min at RT and then added on 1 ml of a freshly prepared suspension of HEK293FT cells in a well of a 6-well plate (concentration 1.2×10^6 cells/ml). 1 day after transfection, the medium was replaced with 1.5 ml of complete growth medium (DMEM high Glucose+10% FCS+1% L-Glutamine+1% NEAA+1% NaPyr.). 48 h post transfection supernatant containing viral transducing particles was collected and frozen at −80° C.
Two days before transduction with viral particles 1×10^5 HEK293A cells (Invitrogen R70507) were seeded in 2 ml growth medium in a well of a 6-well plate. Infection was performed with 90 μl of collected supernatant containing viral transducing particles in 1 ml medium including 8 μg/ml polybrene. 24 h post infection, stably transfected cells were selected with blasticidin at a concentration of 8 μg/ml.
Iii) Quantitative BTK-GFP and IKZF3-GFP Abundance Measurements
Stable HEK293A-BTK-GFP-iresRFP cells were maintained in complete growth medium (DMEM high Glucose+10% FCS+1% L-Glutamine+1% NEAA+1% NaPyr.) with passaging performed twice per week. On Day 0, HEK293A-BTK-GFP-iresRFP or HEK293A-IKZF3-GFP-iresRFP and HEK293A-iresRFP cells were seeded at 10,000 cells/well in a 96-well microtiter plate in 260 μl complete medium. On Day 1, cells were treated in duplicate with 10-point 1:3 dilution series of compound using the HP D300 Digital Dispenser (Tecan). DMSO concentrations were normalized across the plate to 0.1%. On Day 2, after 24 h of incubation at 37° C., treatment media was discarded, cells rinsed with 100 μl/well PBS and then detached using 40 μl trypsin/well for 5 min. Trypsin was neutralized with 100 μl/well PBS+20% FCS). Flow cytometry was performed on the samples using the BD FACS CANTO II (Becton Dickinson). Cell identification was then performed using forward (FSC) vs. side scatter (SSC) plots. […] Median GFP values for 5,000 single cells are used to determine BTK levels. Median GFP values from HEK293A-iresRFP are used as a background signal and thus defining 0% BTK signal. Median GFP values from DMSO treated HEK293A-BTK-GFP-iresRFP or HEK293A-IKZF3-GFP-iresRFP are used to define 100% BTK signal for subsequent DC50 curves (concentration at 50% BTK degradation).
(A flow cytometer gives signals particle by particle.)

T1 sequence (Q9UKT9 whole entry): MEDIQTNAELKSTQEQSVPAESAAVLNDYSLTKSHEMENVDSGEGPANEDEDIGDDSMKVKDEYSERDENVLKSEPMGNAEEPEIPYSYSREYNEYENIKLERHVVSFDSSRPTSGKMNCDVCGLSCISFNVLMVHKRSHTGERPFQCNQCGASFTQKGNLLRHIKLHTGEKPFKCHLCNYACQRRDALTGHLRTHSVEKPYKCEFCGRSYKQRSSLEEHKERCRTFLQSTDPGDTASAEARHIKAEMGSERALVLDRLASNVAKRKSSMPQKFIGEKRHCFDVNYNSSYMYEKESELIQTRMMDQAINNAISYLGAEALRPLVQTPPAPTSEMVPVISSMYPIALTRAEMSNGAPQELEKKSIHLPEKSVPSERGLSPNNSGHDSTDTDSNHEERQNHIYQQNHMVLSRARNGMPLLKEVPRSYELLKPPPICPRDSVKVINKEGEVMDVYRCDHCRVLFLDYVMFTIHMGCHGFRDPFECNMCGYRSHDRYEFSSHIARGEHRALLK
T1 sequence (Q96SW2 whole entry): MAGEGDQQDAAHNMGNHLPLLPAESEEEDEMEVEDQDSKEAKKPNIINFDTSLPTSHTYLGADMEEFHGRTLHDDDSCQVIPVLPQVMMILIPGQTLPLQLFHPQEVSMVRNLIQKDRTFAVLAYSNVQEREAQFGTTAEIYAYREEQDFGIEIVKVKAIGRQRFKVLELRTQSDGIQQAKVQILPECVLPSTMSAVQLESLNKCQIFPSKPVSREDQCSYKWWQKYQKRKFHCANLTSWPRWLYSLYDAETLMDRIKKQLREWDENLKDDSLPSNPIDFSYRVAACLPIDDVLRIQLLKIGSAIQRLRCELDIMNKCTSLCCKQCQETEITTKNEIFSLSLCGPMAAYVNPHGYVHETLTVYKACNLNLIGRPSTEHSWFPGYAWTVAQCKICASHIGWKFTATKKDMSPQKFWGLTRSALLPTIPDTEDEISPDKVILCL
T1 sequence (Q16531 whole entry partner): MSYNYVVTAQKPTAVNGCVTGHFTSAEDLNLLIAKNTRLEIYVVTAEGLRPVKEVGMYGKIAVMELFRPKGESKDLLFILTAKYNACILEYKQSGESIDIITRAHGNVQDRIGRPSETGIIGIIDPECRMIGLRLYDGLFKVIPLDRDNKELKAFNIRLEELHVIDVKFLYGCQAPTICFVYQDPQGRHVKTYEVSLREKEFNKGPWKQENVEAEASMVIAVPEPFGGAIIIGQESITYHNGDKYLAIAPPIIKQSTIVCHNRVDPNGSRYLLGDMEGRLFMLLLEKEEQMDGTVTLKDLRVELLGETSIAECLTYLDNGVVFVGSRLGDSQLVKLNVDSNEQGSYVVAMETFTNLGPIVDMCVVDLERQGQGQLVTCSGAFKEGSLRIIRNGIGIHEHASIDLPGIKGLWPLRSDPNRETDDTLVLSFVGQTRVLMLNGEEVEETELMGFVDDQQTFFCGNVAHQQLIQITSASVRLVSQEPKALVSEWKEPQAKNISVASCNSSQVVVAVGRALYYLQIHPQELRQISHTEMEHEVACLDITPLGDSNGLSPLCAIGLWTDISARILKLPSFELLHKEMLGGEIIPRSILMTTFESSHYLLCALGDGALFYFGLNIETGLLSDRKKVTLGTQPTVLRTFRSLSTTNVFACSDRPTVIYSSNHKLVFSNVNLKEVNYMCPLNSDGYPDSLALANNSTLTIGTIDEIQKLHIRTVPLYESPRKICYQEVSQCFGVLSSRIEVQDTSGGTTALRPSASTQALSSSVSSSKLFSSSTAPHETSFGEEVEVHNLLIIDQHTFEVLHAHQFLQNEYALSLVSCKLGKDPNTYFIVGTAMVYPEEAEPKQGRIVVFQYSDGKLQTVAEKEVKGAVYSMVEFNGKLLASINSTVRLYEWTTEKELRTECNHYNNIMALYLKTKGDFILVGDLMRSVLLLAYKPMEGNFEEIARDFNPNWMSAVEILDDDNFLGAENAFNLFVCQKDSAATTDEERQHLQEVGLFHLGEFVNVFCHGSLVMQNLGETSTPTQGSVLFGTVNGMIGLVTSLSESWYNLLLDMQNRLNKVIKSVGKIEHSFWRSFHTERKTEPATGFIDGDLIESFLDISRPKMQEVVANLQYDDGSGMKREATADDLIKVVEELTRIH

Take `CCOc1ccc(C(=O)N2CCC3(CCN(Cc4ccc(-c5cc6c(-c7cc(F)cc(NC(=O)c8ccc(C(C)(C)O)cc8F)c7C)ncnc6[nH]5)cc4)CC3)CC2)cc1N1CCC(=O)NC1=O` [Compound 4, N-(3-(6-(4-((9-(3-(2,4-Dioxotetrahydropyrimidin-1(2H)-yl)-4-ethoxybenzoyl)-3,9-diazaspiro[5.5]undecan-3-yl)methyl)phenyl)-7H-pyrrolo[2,3-d]pyrimidin-4-yl)-5-fluoro-2-methylphenyl)-2-fluoro-4-(2-hydroxypropan-2-yl)benzamide]: the DC50 is over 1100 nM and the “IKZF3 deg Amax” value is reported as 101.3%.

Turning to `Cc1ccc(C(=O)N2CCC3(CCN(CCc4ccc(-c5cc6c(-c7cc(F)cc(NC(=O)c8ccc(C(C)(C)O)cc8F)c7C)ncnc6[nH]5)cc4)CC3)CC2)cc1N1CCC(=O)NC1=O` [Compound 5, N-(3-(6-(4-(2-(9-(3-(2,4-Dioxotetrahydropyrimidin-1(2H)-yl)-4-methylbenzoyl)-3,9-diazaspiro[5.5]undecan-3-yl)ethyl)phenyl)-7H-pyrrolo[2,3-d]pyrimidin-4-yl)-5-fluoro-2-methylphenyl)-2-fluoro-4-(2-hydroxypropan-2-yl)benzamide], the DC50 is over 370 nM and the “IKZF3 deg Amax” value turned out to be 103.3%.

For `Cc1c(NC(=O)c2ccc(C(C)(C)O)cc2F)cc(F)cc1-c1ncnc2[nH]c(-c3ccc(COC4CCN(CCC5CCN(C(=O)c6ccc(F)c(N7CCC(=O)NC7=O)c6)CC5)CC4)cc3)cc12` [Compound 6, N-(3-(6-(4-(((1-(2(1-(3-(2,4-dioxotetrahydropyrimidin-1(2H)-yl)-4-fluorobenzoyl)piperidin-4-yl)ethyl)piperidin-4-yl)oxyl)methyl)phenyl)-7H-pyrrolo[2,3-d]pyrimidin-4-yl)-5-fluoro-2-methylphenyl)-2-fluoro-4-(2-hydroxypropan-2-yl)benzamide], the DC50 is over 10000 nM and the “IKZF3 deg Amax” value came out at 100.8%.

On to `COc1ccc(C(=O)N2CCC(OC3CCN(Cc4ccc(-c5cc6c(-c7cc(F)cc(NC(=O)c8ccc(C(C)(C)O)cc8F)c7C)ncnc6[nH]5)cc4)CC3)CC2)cc1N1CCC(=O)NC1=O` [Compound 8, N-(3-(6-(4-((4-((1-(3-(2,4-dioxotetrahydropyrimidin-1(2H)-yl)-4-methoxybenzoyl)piperidin-4-yl)oxyl)piperidin-1-yl)methyl)phenyl)-7H-pyrrolo[2,3-d]pyrimidin-4-yl)-5-fluoro-2-methylphenyl)-2-fluoro-4-(2-hydroxypropan-2-yl)benzamide], for which the DC50 is over 2600 nM and the “IKZF3 deg Amax” value is reported as 103.3%.

`COc1ccc(C(=O)N2CCC3(CCN(Cc4ccc(-c5cc6c(-c7cc(F)cc(NC(=O)c8ccc(C(C)(C)O)cc8F)c7C)ncnc6[nH]5)cc4)CC3)CC2)cc1N1CCC(=O)NC1=O` [Compound 9, N-(3-(6-(4-((9-(3-(2,4-Dioxotetrahydropyrimidin-1(2H)-yl)-4-methoxybenzoyl)-3,9-diazaspiro[5.5]undecan-3-yl)methyl)phenyl)-7H-pyrrolo[2.3-d]pyrimidin-4-yl)-5-fluoro-2-methylphenyl)-2-fluoro-4-(2-hydroxypropan-2-yl)benzamide]: the DC50 was over 7800 nM and the “IKZF3 deg Amax” value came to 99.1%.

`Cc1c(NC(=O)c2ccc(C(C)(C)O)cc2F)cc(F)cc1-c1ncnc2[nH]c(-c3ccc(CCN4CCC5(CC4)CCN(C(=O)c4cccc(N6CCC(=O)NC6=O)c4)CC5)cc3)cc12` [Compound 12, N-(3-(6-(4-(2-(9-(3-(2,4-Dioxotetrahydropyrimidin-1(2H)-yl)benzoyl)-3,9-diazaspiro[5,5]undecan-3-yl)ethyl)phenyl)-7H-pyrrolo[2,3-d]pyrimidin-4-yl)-5-fluoro-2-methylphenyl)-2-fluoro-4-(2-hydroxypropan-2-yl)benzamide]: the DC50 is over 1100 nM and the “IKZF3 deg Amax” value amounted to 100.4%.

As for `Cc1c(NC(=O)c2ccc(C(C)(C)O)cc2F)cc(F)cc1-c1ncnc2[nH]c(-c3ccc(CN4CCC5(CC4)CCN(C(=O)c4ccc(F)c(N6CCC(=O)NC6=O)c4)CC5)cc3)cc12` [Compound 14, N-(3-(6-(4-((9-(3-(2,4-Dioxotetrahydropyrimidin-1(2H)-yl)-4-fluorobenzoyl)-3,9-diazaspiro[5.5]undecan-3-yl)methyl)phenyl)-7H-pyrrolo[2.3-d]pyrimidin-4-yl)-5-fluoro-2-methylphenyl)-2-fluoro-4-(2-hydroxypropan-2-yl)benzamide], the DC50 was over 1100 nM and the “IKZF3 deg Amax” value stood at 100.2%.

On to `COc1ccc(C(=O)N2CCC(CN3CCC(Oc4ccc(-c5cc6c(-c7cc(F)cc(NC(=O)c8ccc(C(C)(C)O)cc8F)c7C)ncnc6[nH]5)cc4)CC3)CC2)cc1N1CCC(=O)NC1=O` [Compound 19, N-(3-(6-(4-((1-((1-(3-(2,4-Dioxotetrahydropyrimidin-1(2H)-yl)-4-methoxybenzoyl)piperidin-4-yl)methyl)piperidin-4-yl)oxyl)phenyl)-7H-pyrrolo[2,3-d]pyrimidin-4-yl)-5-fluoro-2-methylphenyl)-2-fluoro-4-(2-hydroxypropan-2-yl)benzamide], for which the DC50 was over 10000 nM and the “IKZF3 deg Amax” value worked out at 100.5%.

For the compound `COc1ccc(C(=O)N2CCC3(CC2)CCN(C(C)(C)Cc2ccc(-c4cc5c(-c6cc(F)cc(NC(=O)c7ccc(C(C)(C)O)cc7F)c6C)ncnc5[nH]4)cc2)CC3)cc1N1CCC(=O)NC1=O` [Compound 20, N-(3-(6-(4-(2-(9-(3-(2,4-Dioxotetrahydropyrimidin-1(2H)-yl)-4-methoxybenzoyl)-3,9-diazaspiro[5.5]undecan-3-yl)-2-methylpropyl)phenyl)-7H-pyrrolo[2,3-d]pyrimidin-4-yl)-5-fluoro-2-methylphenyl)-2-fluoro-4-(2-hydroxypropan-2-yl)benzamide], the DC50 was over 1100 nM and the “IKZF3 deg Amax” value is given as 93.3%.

As to `COc1ccc(C(=O)N2CCN(C(=O)N3CCN(Cc4ccc(-c5cc6c(-c7cc(F)cc(NC(=O)c8ccc(C(C)(C)O)cc8F)c7C)ncnc6[nH]5)cc4)CC3)CC2)cc1N1CCC(=O)NC1=O` [Compound 22, N-(3-(6-(4-((4-(4-(3-(2,4-Dioxotetrahydropyrimidin-1(2H)-yl)-4-methoxybenzoyl)piperazine-1-carbonyl)piperazin-1-yl)methyl)phenyl)-7H-pyrrolo[2,3-d]pyrimidin-4-yl)-5-fluoro-2-methylphenyl)-2-fluoro-4-(2-hydroxypropan-2-yl)benzamide], the DC50 was over 10000 nM and the “IKZF3 deg Amax” value was 99.7%.

Regarding `Cc1ccc(C(=O)N2CCC3(CCN(Cc4ccc(-c5cc6c(-c7cc(F)cc(NC(=O)c8ccc(C(C)(C)O)cc8F)c7C)ncnc6[nH]5)cc4)CC3)CC2)cc1N1CCC(=O)NC1=O` [Compound 27, N-(3-(6-(4-((9-(3-(2,4-Dioxotetrahydropyrimidin-1(2H)-yl)-4-methylbenzoyl)-3,9-diazaspiro[5.5]undecan-3-yl)methyl)phenyl)-7H-pyrrolo[2,3-d]pyrimidin-4-yl)-5-fluoro-2-methylphenyl)-2-fluoro-4-(2-hydroxypropan-2-yl)benzamide], the DC50 was over 1100 nM and the “IKZF3 deg Amax” value is reported as 102.2%.
